Active and inactive are the calls of the source.
Legend:
BJ [1] = assay: BJ-TERT fibroblast viability loss – cell-based, RAS-independent, luminescence, dose response (AID 1933); type: functional; conditions: Homo sapiens
BJ [2] = assay: cells; type: functional, cell-based; conditions: Homo sapiens
[3] = target: Luciferin 4-monooxygenase (Photinus pyralis, UniProt P08659); assay: inhibition of purified Photinus pyralis luciferase – biochemical, luminescence, dose response (AID 1891)
[4] = Luminescence Cell-Based Dose Confirmation HTS to Identify Inhibitors of Platelet Dense Granule Release. [Related pubchem assays: 1663 (Primary HTS), 1678 (Summary of Project)]; type: functional
BJ [5] = assay: BJ-TERT-LT-ST fibroblast viability loss – cell-based, RAS-independent, luminescence, dose response (AID 1935); type: functional; conditions: Homo sapiens;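 further: BJ fibroblasts immortalized with TERT plus LT and ST oncogenes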
[6] = DRD fibroblast viability loss – cell-based, non-viral oncogenic, luminescence, dose response (AID 1934); type: functional; conditions: Homo sapiens
INS1 = assay: INS-1E survival protection against cytokine death – cell-based, luminescence, retest, dose response (AID 449756); type: functional; conditions: Rattus norvegicus;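 further: cell death triggered by IL-1 beta plus TNF-alpha plus IFN-gamma mixture; protective hits raise ATP signal compared with cytokine alone wells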
[7] = A549 cell cytotoxicity, dose response, cytotoxicity control, plate reader, cherry-pick, antagonist series (AID 743412); type: functional, cell-based
[8] = toxicity toward HepG2 liver cells – cell-based, plate reader, cherry-pick, antagonist series, cytotoxicity control, dose response (AID 743416); type: functional
[9] = blockers of bursicon-stimulated LGR2 cAMP reporter – cell-based, HEK293, CRE-luciferase reporter, cherry pick, set 2, dose response (AID 743343); type: functional;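 further: transfected cells were stimulated with diluted bursicon conditioned medium after compound addition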
[10] = blockade of melanocortin 4 receptor signaling – cell-based, plate reader, cherry pick, counter-screen for LGR2 antagonist project, dose response (AID 743444); type: functional;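 further: transfected HEK 293 cells stimulated with alpha-MSH peptide; potency of inhibitors of the alpha-MSH evoked signal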
[11] = target: Endoplasmic reticulum aminopeptidase 1 (Homo sapiens, UniProt Q9NZ08); assay: inhibition of human ERAP1 enzyme activity – biochemical, cherry-pick, set 2, plate reader, dose response (AID 743314)
Endoplasmic reticulum aminopeptidase 1, sequence (Q9NZ08 whole entry): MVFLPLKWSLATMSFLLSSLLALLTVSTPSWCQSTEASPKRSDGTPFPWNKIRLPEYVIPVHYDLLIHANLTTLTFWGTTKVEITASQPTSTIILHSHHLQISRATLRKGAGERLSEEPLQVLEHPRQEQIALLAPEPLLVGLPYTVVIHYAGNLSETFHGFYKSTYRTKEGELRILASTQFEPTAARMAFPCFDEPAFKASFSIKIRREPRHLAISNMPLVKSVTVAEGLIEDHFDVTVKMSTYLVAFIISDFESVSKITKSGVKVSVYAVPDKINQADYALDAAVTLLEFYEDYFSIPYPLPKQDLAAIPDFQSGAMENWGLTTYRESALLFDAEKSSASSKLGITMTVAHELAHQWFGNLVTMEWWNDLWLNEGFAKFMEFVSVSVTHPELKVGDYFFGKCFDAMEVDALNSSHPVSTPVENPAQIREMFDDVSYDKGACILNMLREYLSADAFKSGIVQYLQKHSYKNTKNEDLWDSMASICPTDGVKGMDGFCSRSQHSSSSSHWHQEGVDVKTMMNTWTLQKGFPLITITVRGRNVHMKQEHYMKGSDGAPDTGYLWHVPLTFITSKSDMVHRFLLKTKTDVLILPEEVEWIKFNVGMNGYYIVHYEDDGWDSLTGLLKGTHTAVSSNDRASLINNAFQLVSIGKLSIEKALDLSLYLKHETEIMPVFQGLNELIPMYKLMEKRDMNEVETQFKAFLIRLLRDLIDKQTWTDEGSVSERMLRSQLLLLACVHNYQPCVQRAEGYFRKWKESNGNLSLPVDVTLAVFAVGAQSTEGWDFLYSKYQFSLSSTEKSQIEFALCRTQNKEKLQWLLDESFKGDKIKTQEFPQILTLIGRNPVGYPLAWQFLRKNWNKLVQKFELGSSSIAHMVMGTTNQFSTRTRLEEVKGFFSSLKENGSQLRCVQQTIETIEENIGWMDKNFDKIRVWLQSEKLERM

[12] = viability loss in HEK293 cells – cell-based, plate reader, cherry-picked samples, cytotoxicity control, dose response (AID 743446); type: functional
[13] = target: Potassium channel subfamily K member 3 (Homo sapiens, UniProt O14649); assay: inhibition of human KCNK3 channel flux – CHO cells, FluxOR thallium flux, SAR follow-up (AID 652212); type: functional
Potassium channel subfamily K member 3, sequence (O14649 whole entry): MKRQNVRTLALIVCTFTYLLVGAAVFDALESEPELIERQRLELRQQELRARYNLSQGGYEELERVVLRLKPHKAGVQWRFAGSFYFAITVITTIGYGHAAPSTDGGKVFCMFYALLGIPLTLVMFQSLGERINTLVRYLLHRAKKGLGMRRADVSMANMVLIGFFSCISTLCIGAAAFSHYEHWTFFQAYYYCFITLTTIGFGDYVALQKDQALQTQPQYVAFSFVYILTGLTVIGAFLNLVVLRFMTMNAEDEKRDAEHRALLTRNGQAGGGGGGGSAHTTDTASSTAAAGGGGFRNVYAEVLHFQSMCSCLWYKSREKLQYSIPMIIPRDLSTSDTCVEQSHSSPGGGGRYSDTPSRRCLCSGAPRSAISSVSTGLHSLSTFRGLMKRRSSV

Escherichia coli = assay: microbe, parasite or virus in culture
Caspase-6 = Caspase-6 (Homo sapiens, UniProt P55212); assay: inhibition of CASP6 peptide cleavage – biochemical, VEID-R110 fluorescence, cherry-pick, dose response (AID 720632)
Caspase-6, sequence (P55212 24-179 limits assumed): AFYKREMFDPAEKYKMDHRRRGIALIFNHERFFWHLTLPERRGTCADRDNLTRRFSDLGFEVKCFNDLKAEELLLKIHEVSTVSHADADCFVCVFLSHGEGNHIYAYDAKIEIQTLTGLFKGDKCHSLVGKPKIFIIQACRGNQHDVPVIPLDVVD
Caspase-6, sequence (P55212 194-293 limits assumed): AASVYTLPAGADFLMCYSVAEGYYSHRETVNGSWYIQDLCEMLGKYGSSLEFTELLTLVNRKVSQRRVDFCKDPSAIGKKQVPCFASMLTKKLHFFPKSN

HEK293 = assay: EBV LMP1 TES2 canonical NF-kB signalling blockers – cell-based, HEK293, luciferase, cherry-pick, dose response (AID 588343); type: functional; conditions: Homo sapiens
cells [14] = type: functional, cell-based
[15] = target: T1, Nuclear receptor subfamily 0 group B member 1 (Homo sapiens, UniProt P51843); type: functional, cell-based;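 further: HEK293T cells transfected with SF-1 and DAX-1 plus StAR promoter luciferase reporter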
T1 sequence (P51843 whole entry): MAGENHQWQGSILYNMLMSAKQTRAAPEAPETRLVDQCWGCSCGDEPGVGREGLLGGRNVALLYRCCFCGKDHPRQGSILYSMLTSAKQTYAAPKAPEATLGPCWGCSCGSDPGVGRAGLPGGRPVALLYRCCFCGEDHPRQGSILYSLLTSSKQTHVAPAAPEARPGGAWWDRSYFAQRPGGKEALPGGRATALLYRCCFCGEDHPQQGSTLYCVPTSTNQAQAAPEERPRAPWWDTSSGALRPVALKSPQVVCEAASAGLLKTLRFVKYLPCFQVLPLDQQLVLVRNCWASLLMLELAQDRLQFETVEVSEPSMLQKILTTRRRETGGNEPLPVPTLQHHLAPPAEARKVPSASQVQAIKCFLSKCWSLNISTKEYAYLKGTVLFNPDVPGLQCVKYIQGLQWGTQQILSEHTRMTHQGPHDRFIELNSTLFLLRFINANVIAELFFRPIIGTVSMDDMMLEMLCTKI

[16] = viability loss in HepG2 hepatoma cells – cell-based, ATP luminescence, cherry-pick, activator set 2, cytotoxicity control, dose response (AID 1053143); type: functional
[17] = target: T2, Oxysterols receptor LXR-beta (Homo sapiens, UniProt P55055); type: functional, cell-based;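 further: Cell-based luminescence dose-response assay of agonist activity at LXR, run as a confirmatory counterscreen to a daf-12 agonist screen; HEK293 cells with Gal4-LXR fusion and GAL4-driven luciferase reporter; agonist potency from rising luciferase signal of a Gal4-LXR reporter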
T2 sequence (P55055 whole entry): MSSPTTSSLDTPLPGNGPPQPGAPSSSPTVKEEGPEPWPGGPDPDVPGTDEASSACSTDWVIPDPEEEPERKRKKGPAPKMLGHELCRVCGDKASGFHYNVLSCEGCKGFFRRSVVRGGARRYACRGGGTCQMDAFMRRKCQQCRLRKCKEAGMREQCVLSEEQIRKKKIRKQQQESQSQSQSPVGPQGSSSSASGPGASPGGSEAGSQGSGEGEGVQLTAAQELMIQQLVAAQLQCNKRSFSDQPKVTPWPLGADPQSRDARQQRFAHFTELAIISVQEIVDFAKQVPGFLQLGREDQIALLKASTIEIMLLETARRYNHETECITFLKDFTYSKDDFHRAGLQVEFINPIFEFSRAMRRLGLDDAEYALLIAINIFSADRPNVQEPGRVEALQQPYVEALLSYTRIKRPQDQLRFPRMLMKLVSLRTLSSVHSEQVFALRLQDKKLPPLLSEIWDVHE

cells [18] = assay: cells
[19] = target: T3, RNA-binding protein pos-1 (Caenorhabditis elegans, UniProt G5EF15); assay: disruptors of C. elegans POS-1 RNA interaction – biochemical, fluorescence polarization, dose response (AID 1964);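 further: purified POS-1 fused to maltose binding protein made in E. coli; potency of compounds blocking POS-1 binding to fluorescent RNA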
T3 sequence (G5EF15 whole entry): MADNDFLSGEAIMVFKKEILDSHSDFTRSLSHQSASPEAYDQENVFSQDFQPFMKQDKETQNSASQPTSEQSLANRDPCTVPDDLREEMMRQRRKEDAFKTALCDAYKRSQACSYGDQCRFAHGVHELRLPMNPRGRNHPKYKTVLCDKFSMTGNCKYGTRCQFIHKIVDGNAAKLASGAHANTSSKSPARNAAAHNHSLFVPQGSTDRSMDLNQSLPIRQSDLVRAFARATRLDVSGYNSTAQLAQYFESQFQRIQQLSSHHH

[20] = target: T4, Zinc finger protein mex-5 (Caenorhabditis elegans, UniProt Q9XUB2); assay: potency of MEX-5 RNA-binding blockers – biochemical, C. elegans, fluorescence polarization, dose response (AID 1960)
T4 sequence (Q9XUB2 whole entry): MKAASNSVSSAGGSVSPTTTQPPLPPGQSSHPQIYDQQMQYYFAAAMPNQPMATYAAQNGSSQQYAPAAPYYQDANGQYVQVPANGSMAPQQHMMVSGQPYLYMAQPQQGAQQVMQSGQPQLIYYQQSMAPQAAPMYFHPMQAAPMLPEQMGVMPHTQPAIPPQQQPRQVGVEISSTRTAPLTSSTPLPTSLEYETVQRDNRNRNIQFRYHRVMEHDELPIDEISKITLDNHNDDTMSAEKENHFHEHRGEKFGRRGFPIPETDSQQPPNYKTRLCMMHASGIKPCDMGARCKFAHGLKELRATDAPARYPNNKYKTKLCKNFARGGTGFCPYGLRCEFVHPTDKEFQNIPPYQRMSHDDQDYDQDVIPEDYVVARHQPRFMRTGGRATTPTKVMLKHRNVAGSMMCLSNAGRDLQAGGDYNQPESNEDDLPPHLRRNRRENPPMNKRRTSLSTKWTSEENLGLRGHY

[21] = target: 1-phosphatidylinositol 4,5-bisphosphate phosphodiesterase gamma-1 (Homo sapiens, UniProt P19174); assay: Counterscreen for inhibitors of phospholipase C isozymes (PLC-B3): Fluorescence-based biochemical high throughput dose response assay to identify inhibitors of phospholipase C isozymes (PLC-gamma1).
1-phosphatidylinositol 4,5-bisphosphate phosphodiesterase gamma-1, sequence (P19174 whole entry): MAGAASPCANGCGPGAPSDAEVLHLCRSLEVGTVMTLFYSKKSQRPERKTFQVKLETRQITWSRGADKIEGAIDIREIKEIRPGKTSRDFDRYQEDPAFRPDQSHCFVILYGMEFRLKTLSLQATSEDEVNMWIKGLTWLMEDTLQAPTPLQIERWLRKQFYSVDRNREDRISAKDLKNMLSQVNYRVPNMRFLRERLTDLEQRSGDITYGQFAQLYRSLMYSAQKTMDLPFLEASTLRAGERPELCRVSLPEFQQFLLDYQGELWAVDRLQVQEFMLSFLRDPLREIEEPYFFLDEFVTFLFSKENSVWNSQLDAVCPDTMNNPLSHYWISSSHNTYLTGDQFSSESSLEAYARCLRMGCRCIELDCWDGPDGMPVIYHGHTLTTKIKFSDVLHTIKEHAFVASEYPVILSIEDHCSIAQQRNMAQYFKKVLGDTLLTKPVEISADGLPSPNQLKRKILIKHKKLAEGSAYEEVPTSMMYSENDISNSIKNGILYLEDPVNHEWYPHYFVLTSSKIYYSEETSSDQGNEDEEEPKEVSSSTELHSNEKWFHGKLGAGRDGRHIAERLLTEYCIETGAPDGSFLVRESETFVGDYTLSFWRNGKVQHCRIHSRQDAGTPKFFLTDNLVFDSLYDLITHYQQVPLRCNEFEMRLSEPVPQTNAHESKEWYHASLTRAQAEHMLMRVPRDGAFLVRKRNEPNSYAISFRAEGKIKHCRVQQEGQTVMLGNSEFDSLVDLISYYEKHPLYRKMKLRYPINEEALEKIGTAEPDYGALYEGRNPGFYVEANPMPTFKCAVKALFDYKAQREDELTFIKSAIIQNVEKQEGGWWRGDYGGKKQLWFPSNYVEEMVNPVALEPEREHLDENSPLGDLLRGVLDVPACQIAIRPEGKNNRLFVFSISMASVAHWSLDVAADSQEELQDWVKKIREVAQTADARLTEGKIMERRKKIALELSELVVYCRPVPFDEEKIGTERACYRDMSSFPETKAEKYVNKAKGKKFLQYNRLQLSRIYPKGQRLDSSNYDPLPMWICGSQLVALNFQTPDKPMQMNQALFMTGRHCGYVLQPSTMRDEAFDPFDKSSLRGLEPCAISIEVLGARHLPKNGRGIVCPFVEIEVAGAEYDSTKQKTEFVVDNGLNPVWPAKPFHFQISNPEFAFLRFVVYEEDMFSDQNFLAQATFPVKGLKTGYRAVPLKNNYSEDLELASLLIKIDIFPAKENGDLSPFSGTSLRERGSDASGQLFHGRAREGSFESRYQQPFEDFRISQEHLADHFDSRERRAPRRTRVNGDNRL

[22] = target: 1-phosphatidylinositol 4,5-bisphosphate phosphodiesterase beta-3 (Homo sapiens, UniProt Q01970); assay: Fluorescence-based biochemical high throughput dose response assay to identify inhibitors of phospholipase C isozymes (PLC-B3).
1-phosphatidylinositol 4,5-bisphosphate phosphodiesterase beta-3, sequence (Q01970 whole entry): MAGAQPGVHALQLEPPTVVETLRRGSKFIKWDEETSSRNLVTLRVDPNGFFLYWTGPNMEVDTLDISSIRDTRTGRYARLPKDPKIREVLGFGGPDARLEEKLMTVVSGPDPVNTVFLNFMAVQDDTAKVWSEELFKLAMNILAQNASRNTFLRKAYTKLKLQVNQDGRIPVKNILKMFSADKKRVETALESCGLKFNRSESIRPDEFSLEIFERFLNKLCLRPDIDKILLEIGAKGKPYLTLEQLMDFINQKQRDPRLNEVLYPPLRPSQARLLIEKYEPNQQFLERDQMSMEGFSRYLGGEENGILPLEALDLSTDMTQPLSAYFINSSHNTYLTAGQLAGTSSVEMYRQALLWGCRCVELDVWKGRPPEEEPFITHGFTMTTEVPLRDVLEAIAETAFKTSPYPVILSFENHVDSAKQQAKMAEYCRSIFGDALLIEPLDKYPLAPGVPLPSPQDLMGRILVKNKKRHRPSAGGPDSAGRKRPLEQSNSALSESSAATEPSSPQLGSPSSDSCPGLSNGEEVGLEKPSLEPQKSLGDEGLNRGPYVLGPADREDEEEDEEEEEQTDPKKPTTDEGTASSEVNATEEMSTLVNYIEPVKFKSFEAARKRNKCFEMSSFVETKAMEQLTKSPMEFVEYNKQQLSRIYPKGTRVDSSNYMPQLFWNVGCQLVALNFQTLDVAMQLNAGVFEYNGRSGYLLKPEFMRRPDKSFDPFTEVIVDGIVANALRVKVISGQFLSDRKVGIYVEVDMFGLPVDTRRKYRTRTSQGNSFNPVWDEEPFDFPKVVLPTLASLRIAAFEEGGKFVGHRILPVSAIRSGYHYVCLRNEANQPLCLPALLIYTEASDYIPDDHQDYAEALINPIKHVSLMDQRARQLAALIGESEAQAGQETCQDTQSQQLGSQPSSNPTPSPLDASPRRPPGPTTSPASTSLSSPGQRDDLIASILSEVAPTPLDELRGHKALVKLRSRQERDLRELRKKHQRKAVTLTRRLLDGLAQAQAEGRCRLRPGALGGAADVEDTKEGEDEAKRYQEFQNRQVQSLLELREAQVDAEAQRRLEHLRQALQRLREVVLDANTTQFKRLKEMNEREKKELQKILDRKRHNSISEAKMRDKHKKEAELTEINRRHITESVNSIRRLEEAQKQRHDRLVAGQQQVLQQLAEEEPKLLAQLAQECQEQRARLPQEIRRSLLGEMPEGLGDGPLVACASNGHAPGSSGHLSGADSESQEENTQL

Luciferin 4-monooxygenase, sequence (P08659 whole entry): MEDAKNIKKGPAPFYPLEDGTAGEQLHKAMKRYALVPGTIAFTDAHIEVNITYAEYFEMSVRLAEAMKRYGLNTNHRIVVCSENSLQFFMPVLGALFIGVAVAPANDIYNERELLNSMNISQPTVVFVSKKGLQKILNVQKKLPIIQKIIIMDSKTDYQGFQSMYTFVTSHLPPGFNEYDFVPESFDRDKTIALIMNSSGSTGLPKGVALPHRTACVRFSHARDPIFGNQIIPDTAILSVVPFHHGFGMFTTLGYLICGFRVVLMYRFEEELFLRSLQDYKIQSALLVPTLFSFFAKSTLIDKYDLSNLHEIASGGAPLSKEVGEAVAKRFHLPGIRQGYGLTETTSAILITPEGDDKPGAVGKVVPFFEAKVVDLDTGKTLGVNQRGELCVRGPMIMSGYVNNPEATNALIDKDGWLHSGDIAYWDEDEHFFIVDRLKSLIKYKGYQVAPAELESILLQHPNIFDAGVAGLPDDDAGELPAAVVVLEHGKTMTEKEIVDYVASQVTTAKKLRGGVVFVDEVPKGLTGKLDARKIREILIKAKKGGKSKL

Question: With Cc1cc2nc(-c3cccnc3O)[nH]c2cc1C as the compound, how does the EC50 (BJ [1]) read?
Answer: 4.58 µM (active)

Question: What about the EC50 (BJ [2]) of the same compound?
Answer: 8.47 µM (active)

Question: What about the EC50 [3] of the same compound?
Answer: 1.07 µM (active)

Question: What about the EC50 [4] of the same compound?
Answer: 1.73 µM (active)

Question: What about the EC50 (BJ [5]) of the same compound?
Answer: 13.3 µM (active)

Question: What about the EC50 [6] of the same compound?
Answer: 4.3 µM (active)

Question: What about the AC50 (INS1) of the same compound?
Answer: 3.23 µM (active)

Question: And the AC50 [7]?
Answer: 8.69 µM (active)

Question: And the AC50 [8]?
Answer: 7.17 µM (active)

Question: And the AC50 [9]?
Answer: 2.48 µM (active)

Question: And the AC50 [10]?
Answer: 2.69 µM (active)

Question: And the AC50 [11]?
Answer: 7.63 µM (active)

Question: What about the AC50 [12] of the same compound?
Answer: 6.43 µM (active)

Question: For O=C(Nc1cccc(NC(=O)c2ccco2)c1)c1ccccc1, which IC50 [13] is on record?
Answer: 0.036 µM (active)

Question: What about the AC50 (Escherichia coli) of the same compound?
Answer: 25 µM (active)

Question: Which AC50 (Caspase-6) does the source give for NNC(=O)CNC(=O)Nc1nnc(S)s1 here?
Answer: 6.63 µM (active)

Question: What does the source list for Cc1ccnc(NC(=O)c2ccc(OCC3CCCO3)cc2)c1 (stereo not drawn)?
Answer: EC50 [3]: 7.94 µM (active); EC50 [4]: 5.2 µM (active); AC50 (HEK293): 2.57 µM (active); IC50 (cells [14]): > 67.5 µM (inactive); IC50 [15]: > 67.5 µM (inactive); AC50 [16]: 26 µM (active)

Question: Which EC50 [17] does the source give for COc1ccccc1C(=O)NC(=O)Nc1cccc(Cl)c1 here?
Answer: > 67.5 µM (inactive)

Question: And the EC50 (cells [18])?
Answer: > 67.5 µM (inactive)

Question: Which EC50 [19] does the source give for N#C/C(=C\c1cc(O)c(O)c(O)c1)C(N)=O here?
Answer: 134 µM (active)

Question: And the EC50 [20]?
Answer: > 150 µM (inconclusive)

Question: What about the IC50 [21] of the same compound?
Answer: > 122 µM (inactive)

Question: What about the IC50 [22] of the same compound?
Answer: > 122 µM (inactive)
